This series in a line: Hygroscopic property (preservation stability) at 23° C., ambient pressure, humidity 70%. In kind it is physicochemical. The note with it: humidity of 70%. From the text: Hereinafter, the preservation stability (hygroscopic property) of the crystal of oxidized glutathione according to the present invention will be described in detail with reference to Test Example.

For the substance “oxidized glutathione [Reference Example 1]”, the “Hygroscopic property (moisture absorption / change in water content)” value is on record as “markedly absorbed moisture” and the Time until deliquesced amounted to 2 days.
